Tests used:
[1] = U.S. Pat. No. 4,357,345; cited from earlier work
[2] = test system: acetylcholine-induced writhing; test: Acetylcholine Writhing Assay; assay type: in vivo, male CD-1 mice; settings: Mus musculus, 0.75 h; oral by gavage, 45 minutes before intraperitoneal acetylcholine; writhes counted for 10 minutes
Description: Analgesic: The "Acetylcholine Writhing Assay" (ACH) of Collier et al [Nature; Vol. 204: page 1316 (1964)]was employed. In this study the test compounds were administered orally to mice and 45 minutes later the mice were injected with acetylcholine. The frequency of writhing was counted in each animal and the response elicited in the drug-treated mice was compared with the response of those given acetylcholine alone.
Analgesic activity was evaluated via the mouse acetylcholine writing test using a modification of the procedure described by Collier, et al in Nature (New Biol.) Vol. 204; page 1316 (1964) and Br. J. Pharmacol, Chemother, Vol. 32: page 295 (1968). Each test group consisted of ten male CD-1 mice (Charles River Laboratories) weighing 18-28 grams each. Test compounds suspended in a mixture of 0.25% methylcellulose solution in […] were administered orally by gavage and forty five minutes later the mice were injected intraperitoneally with acetylcholine (0.55 mg/ml in 0.25% methylcellulose). The number of writhes in each group of mice were counted for 10 minutes immediately following the injection of acetylcholine and the percent inhibition was calculated as follows: [formula] Four dose levels were used to calculate the ED50 of the test compound.

[3] = test system: Adjuvant arthritis (paw edema); test: Adjuvant Arthritis Assay; Established; assay type: in vivo, rats; settings: Rattus norvegicus, 552 h; oral, once daily on days 19-22 post adjuvant; paw volume on day 23
Description: In this assay the differences between dosed and non-dosed paw values were determined postadjuvant. […] On day 19 post adjuvant all rats were evenly distributed according to edema size. Doses of treatment or vehicle were administered orally to all rats once daily on days 19-22 inclusive. Final paw volumes were determined on day 23 post adjuvant.

[4] = test system: Adjuvant arthritis (hind paw edema); test: Adjuvant Arthritis Assay; Developing; assay type: in vivo, female Lewis rats; settings: Rattus norvegicus, 96 h, dosed once daily for 4 days in 0.25% methylcellulose, inhibition of hind paw edema on fifth day
Description: Anti-Inflammatory: This activity was evaluated via a modification of the Adjuvant Arthritis Assay (AA) described by S. […] This assay measures the ability of the test compound to antagonize local edema, a characteristic of the inflammatory response. […] The left and right rear paws of female Lewis rats (Charles River Laboratories) weighing 160-180 grams each were measured by mercury displacement prior to injection (Day Zero). Adjuvant arthritis was induced in this rat colony by subcutaneous injection of Mycobacterium butyricum (0.75 mg in 0.1 ml light mineral oil, Fisher) using an automated Cornwall syringe. On days 11-15 post-adjuvant the injected animals with 0.25 to 0.75 ml. paw edema were selected and distributed evenly, according to edema size, into control and experimental groups of ten rats each. Vehicle control and drug treatments were assigned to the groups at random. The assay was performed using a variable dose level for each test compound per kilogram per day in 0.25% methylcellulose vehicle. All animals were dosed once daily for 4 days and on the fifth day both hind paw volumes were again measured using mercury displacement. The hind paw edema was determined for each rat by subtracting the hind paw volume measured on Day Zero from the hind paw volume measured on the fifth day of the study. Group means were determined and the drug effect was calculate as percent inhibition of the hind paw edema according to the following equation: [formula] […] The known anti-inflammatory NAPROXEN was also tested for comparison purposes.

[5] = Khimiya Geterotsiklicheskikh Soedinenii, Vol. 12: 1660-1664 (1971); cited from earlier work
[6] = test system: Adjuvant arthritis (hind paw edema); test: Adjuvant Arthritis Assay; Immunomodulatory; assay type: in vivo, Lewis female rats; settings: 50 mg/kg, oral, Day 5 to 9; paw edema on Day 15
Description: Immunomodulatory: This activity was determined by using a Modified Adjuvant Assay procedure in which female rats were injected with Mycobacterium butyricum to induce hind paw edema. The test compounds were administered orally and the difference in volume between dosed and non-dosed paws was determined.
Lewis female rats were injected in the tail subcutaneously with Mycobacterium butyricum (0.75 mg in 0.1 ml light mineral oil, Fisher) on Day Zero. Prior to injection the volumes of the left and right rear paws were measured by mercury displacement. All rats were dosed orally with vehicle or test compounds on Day 5 to 9 inclusive. The volume of both hind paws were determined on Day 15 and the percent inhibitions were calculated based upon average edema on Day 15 relative to the edema mean in the control group.

LD50 (acute toxicity) = settings: rat, in vivo; printed after the oral four-day ulcerogenicity study in female Lewis rats
yeast-induced fever = test: Antipyretic Evaluation (yeast-induced fever in rats); assay type: in vivo, male Sprague-Dawley rats; settings: 300 mg/kg, oral by gavage nineteen hours after yeast injection
Description: Antipyretic: This activity was evaluated by creating a yeast-induced fever in rats according to a modified method of the procedure described by Loux et al in "Toxicology and Applied Pharmacology", Vol. 22: page 672 (1972). In this assay rats injected with yeast in distilled water were dosed with test compounds, aspirin (positive control) and a vehicle (negative control) and the observed differences in body temperature were analyzed statistically.
Antipyretic activity was evaluated using a modification of the test described by Loux et al, in Toxicology and Applied Pharmacology, 22:672 (1972), that is, yeast-induced fever in rats. Each test group consisted of ten male Sprague-Dawley rats (Charles River Laboratories), weighing 180-225 grams each. Eighteen hours prior to compound administration the rats were weighed and body temperatures were recorded. Food was removed with water available ad libitum. […]
Test compounds suspended in 0.25% methylcellulose (0.25% MC) or olive oil were administered orally by gavage nineteen hours following the yeast injection. Body temperatures were taken and recorded one hour after compound administration. […] The mean temperature of the compound-treated groups, positive control group (Aspirin) and negative control group (vehicle) were calculated at 18 hours and 20 hours. The data was analyzed statistically using a paired-samples Student's t-Test.

In the case of `CC(C)(C)c1cc(S(=O)(=O)c2ccccc2)cc(C(C)(C)C)c1O` [2,6-di-(tert-butyl)-4-(phenylsulfonyl)phenol], the anti-inflammatory activity [1] is given as “absence of anti-inflammatory activity”.
For `CCCCCCCCc1cc(C(C)(C)C)c(O)c(C(C)(C)C)c1` [4-n-octyl-2,6-di-(tert-butyl)phenol], the anti-inflammatory activity [1] is given as “absence of anti-inflammatory activity”.
In the case of `COc1ccc2cc([C@H](C)C(=O)O)ccc2c1` [NAPROXEN], the ED50 [2] is reported as 6.2 mg/kg, the ED50 [3] is reported as 28 mg/kg and the ED50 [4] is reported as 28 mg/kg.
For `CC(C)(C)c1cc(C=Cc2ccncc2)cc(C(C)(C)C)c1O` [4-[2-(3',5'-di-tert-butyl-4'-hydroxyphenyl)ethenyl]pyridine], the “effectiveness in the treatment of tumors” value [5] is given as “effective in the treatment of tumors”.
For `CC(C)(C)c1cc(N2CCCC2=O)cc(C(C)(C)C)c1O` [Example 1, 1-(3,5-Di-tert-Butyl-4-Hydroxyphenyl)Pyrrolidin-2-One], the “% Inhibition (Adjuvant Arthritis Data-Immunomodulatory)” value [6] was 39%, the ED50 [2] was 13 mg/kg and the LD50 (LD50 (acute toxicity)) was greater than 1000 mg/kg. It also gave an ED50 [3] of 36 mg/kg and an ED50 [4] of 21 mg/kg.
In the case of `CC(C)(C)c1cc(C=Cc2ccccn2)cc(C(C)(C)C)c1O` [2-[2-(3',5'-di-tert-butyl-4'-hydroxyphenyl)ethenyl]pyridine], the “effectiveness in the treatment of tumors” value [5] is given as “effective in the treatment of tumors”.
`CC(C)(C)c1cc(N2CCCCC2=O)cc(C(C)(C)C)c1O` [Example 2, 1-(3,5-Di-tert-Butyl-4-Hydroxyphenyl)Piperidin-2-One] gave an ED50 [4] of 34 mg/kg.
In the case of `CC(C)(C)c1cccc(C(C)(C)C)c1O` [2,6-di-(tert-butyl)phenol], the anti-inflammatory activity [1] is listed as “absence of anti-inflammatory activity”.
In the case of `CC(C)(C)c1cc(C(N)=O)cc(C(C)(C)C)c1O` [4-carboxamido-2,6-di-(tert-butyl)phenol], the anti-inflammatory activity [1] is given as “absence of anti-inflammatory activity”.
In the case of `Cc1cc(C(C)(C)C)c(O)c(C(C)(C)C)c1` [3,5-di(tert-butyl)-4-hydroxytoluene], the anti-inflammatory activity [1] is given as “little or no value as an anti-inflammatory agent”.
For `CC(=O)c1cc(C(C)(C)C)c(O)c(C(C)(C)C)c1` [4-acetyl-2,6-(di-tert-butyl)phenol], the anti-inflammatory activity [1] is listed as “absence of anti-inflammatory activity”.
In the case of `CC(C)(C)c1cc(C(=O)c2cc(C(=O)O)ccc2Cl)cc(C(C)(C)C)c1O` [4-(5-carboxy-2-chlorobenzoyl)-2,6-di-(tert-butyl)phenol], the anti-inflammatory activity [1] is given as “absence of anti-inflammatory activity”.
With `CC(=O)Oc1ccccc1C(=O)O` [Aspirin] the “Change in Temperature, 18-20 Hour Period” value (yeast-induced fever) was -2.05 °C.
In the case of `CC(C)(C)c1cc(C(=O)c2ccccc2Cl)cc(C(C)(C)C)c1O` [4-(2-chlorobenzoyl)-2,6-di-(tert-butyl)phenol], the anti-inflammatory activity [1] is listed as “absence of anti-inflammatory activity”.
